Where a name gives a salt, the structure may show the parent alone. Read-outs that look alike come from different tables or passages of the source.
Assays:
Format in all cases: physicochemical
[1] = Solubility in water and biologically relevant media (SGF, FeSSIF, FaSSIF), HPLC, pH, XRPD; conditions: 37° C.; for XRPD of the filter cake: 24 h
Method: (§1) HPLC analysis was performed with an Agilent HPLC 1260 series instrument.
The solubility of the Form A of the hemi-fumarate salt was evaluated in water and biologically relevant media, SGF, FeSSIF, and FaSSIF. About 10 mg of the sample was weighed into sample vials and then 2 mL of three bio-relevant media and water were added to each respective sample to make suspensions. All suspensions were shaken at 37° C. with 200 rpm. […] The XRPD pattern from the solubility test of the Form A of the hemi-fumarate salt of the compound of formula (I) is depicted in FIG. 12.

[2] = Physical and chemical stability at 40° C. (75% RH) and 60° C. (XRPD, HPLC); conditions: for Physical and chemical stability / XRPD - 29 days / Purity (%) - 29 days: 29 days
Method: as §1
Appropriate amount of the Form A of the hemi-fumarate salt was placed at 40° C. (75% RH) and 60° C. for several days. The solids were analyzed by XRPD (Example 1, XRPD) and HPLC (Example 1, HPLC) at appropriate time points. The physical and chemical stabilities of the Form A of the hemi-fumarate salt was conducted at 60° C. and at 40° C. (75% RH) for 29 days. No obvious degradation occurred and no form change was observed under testing conditions. […] (75% RH) for 29 days.

[3] = Slurry study of Form A of the hemi-fumarate salt (XRPD of solids); conditions: room temperature, three days (footnote *)
[4] = Dynamic vapor sorption (DVS Intrinsic, 25° C., 0-90% RH)
Method: Moisture sorption/desorption data were collected on a DVS Intrinsic (SMS, UK). The sample was placed into a tared sample chamber and automatically weighed. The sample was dried at 40° C. until the dm/dt was less than 0.002% and cooled to 25° C. Set the instrument parameters as below. • Step time (min): 60 min • Sample temperature: 25° C. • Cycle: Full cycle • Adsorption: 0, 10, 20, 30, 40, 50, 60, 70, 80, 90 • Desorption: 80, 70, 60, 50, 40, 30, 20, 10, 0 • Save Data Rate: 5 s • Total flow rate: 200 sccm • Post experiment total flow: 200 sccm
The associated DVS isotherm plot of Form A of the hemi-fumarate salt is depicted in FIG. 10.

[5] = Slurry study of Form A of the hemi-fumarate salt (XRPD of solids)
Method: XRPD patterns of samples were collected using with an X-ray diffractometer (Bruker D8 advance). The system was equipped with LynxEye detector. Samples were scanned from 3 to 40° 2θ, at a step size 0.02° 2θ. The tube voltage and current were 40 KV and 40 mA, respectively.
Slurry studies of the Form A of the hemi-fumarate salt were conducted at room temperature for four days and at 50° C. for one day. About 10 mg to 35 mg of the Form A of the hemi-fumarate salt was slurried in different solvents at RT or 50° C. for one to four days. Solid samples were collected by filtration and analyzed by XRPD (Example 1, XRPD) at a specific time. […] The overlay of XRPD patterns from the slurry study of the Form A of the hemi-fumarate salt of the compound of formula (I) is depicted in FIG. 11.

[6] = Inter-conversion study (competitive slurry) of hemi-fumarate Form A and Form B in IPA; conditions: RT and 50° C.
Method: Equal amount of the Form A of the hemi-fumarate salt and the Form B of the hemi-fumarate salt were added into IPA, and the suspensions were stirred at RT or 50° C. for 3 days, respectively. Residual solids were obtained and characterized. […] The overlay of the XRPD pattern from the inter-conversion study of the hemi-fumarate salt is depicted in FIG. 15.

[7] = Solubility of hemi-fumarate Form A by visual assessment upon solvent addition
Method: The solubility of the Form A of the hemi-fumarate salt was evaluated by visual assessment of samples upon solvent addition, employing organic solvents and water. Among the solvents, the Form A of the hemi-fumarate salt had the highest solubility in THF, MeOH, EtOH and acetone (>50 mg/mL).

SMILES: Cc1cc(NC(=O)[C@H](O)c2cc(F)cc(F)c2)ccc1-c1cnc(N)c(C(=O)NC(C)C)c1 [Form A of the hemi-fumarate salt, (R)-2-amino-5-(4-(2-(3,5-difluorophenyl)-2-hydroxyacetamido)-2-methylphenyl)-N-isopropylnicotinamide]
- pH of the filtrate ([1]; FaSSIF, 0.5 hours): 6.39
- pH of the filtrate ([1]; FaSSIF, 2 hours): 6.36
- XRPD of the filter cake ([1]; FaSSIF): exhibited dissociation into the free base Form
- XRPD of the filter cake ([1]; FaSSIF, listed as Form A of the Hemi-Fumarate Salt): Changed
- pH of the filtrate ([1]; FaSSIF, 24 hours): 5.57
- pH of the filtrate ([1]; FeSSIF, 0.5 hours): 5.14
- pH of the filtrate ([1]; FeSSIF, 2 hours): 4.88
- XRPD of the filter cake ([1]; FeSSIF): exhibited dissociation into the free base Form
- XRPD of the filter cake ([1]; FeSSIF, listed as Form A of the Hemi-Fumarate Salt): Changed
- pH of the filtrate ([1]; FeSSIF, 24 hours): 4.71
- Solubility comparison between media ([1]; SGF vs FeSSIF, FaSSIF and water): more soluble in SGF than in FeSSIF, FaSSIF, and water
- pH of the filtrate ([1]; SGF, 0.5 hours): 1.12
- pH of the filtrate ([1]; SGF, 2 hours): 1.10
- XRPD of the filter cake ([1]; SGF): No XRPD pattern change was observed
- pH of the filtrate ([1]; SGF, 24 hours): 1.36
- pH of the filtrate ([1]; Water, 0.5 hours): 3.77
- pH of the filtrate ([1]; Water, 2 hours): 2.97
- XRPD of the filter cake ([1]; Water): exhibited dissociation into the free base Form
- XRPD of the filter cake ([1]; Water, listed as Form A of the Hemi-Fumarate Salt): Changed
- pH of the filtrate ([1]; Water, 24 hours): 2.91
- solubility at 24 h ([1]; pH 1.36, simulated gastric fluid, thermodynamic from solid, SGF, 24 hours): 4370 µg/mL
- solubility at 24 h ([1]; pH 2.91, thermodynamic from solid, Water, 24 hours): 81 µg/mL
- solubility at 2 h ([1]; pH 2.97, thermodynamic from solid, Water, 2 hours): 81 µg/mL
- solubility at 0.5 h ([1]; pH 3.77, thermodynamic from solid, Water, 0.5 hours): 10 µg/mL
- solubility at 24 h ([1]; pH 4.71, thermodynamic from solid, FeSSIF, 24 hours): 41 µg/mL
- solubility at 2 h ([1]; pH 4.88, thermodynamic from solid, FeSSIF, 2 hours): 149 µg/mL
- solubility at 0.5 h ([1]; pH 5.14, thermodynamic from solid, FeSSIF, 0.5 hours): 214 µg/mL
- solubility at 24 h ([1]; pH 5.57, thermodynamic from solid, FaSSIF, 24 hours): 29 µg/mL
- solubility at 2 h ([1]; pH 6.36, thermodynamic from solid, FaSSIF, 2 hours): 16 µg/mL
- solubility at 0.5 h ([1]; pH 6.39, thermodynamic from solid, FaSSIF, 0.5 hours): 22 µg/mL
- solubility at 0.5 h ([1]; simulated gastric fluid, thermodynamic from solid, SGF, 0.5 hours): 4290 µg/mL
- solubility at 2 h ([1]; simulated gastric fluid, thermodynamic from solid, SGF, 2 hours): 4230 µg/mL
- Purity (%) - 8 days ([2]; 40° C. (75% RH), HPLC): 99.86%
- Physical and chemical stability ([2]; 40° C. (75% RH)): physically and chemically stable
- XRPD - 29 days ([2]; 40° C. (75% RH)): No Change
- Purity (%) - 29 days ([2]; 40° C. (75% RH), HPLC): 99.92%
- Purity (%) - 8 days ([2]; 60° C., HPLC): 99.86%
- Physical and chemical stability ([2]; 60° C.): physically and chemically stable
- XRPD - 29 days ([2]; 60° C.): No Change
- Purity (%) - 29 days ([2]; 60° C., HPLC): 99.91%
- Purity (%) ([2]; Starting material (before storage), HPLC): 99.87%
- XRPD result after slurry ([3]; Heptane): Form A*
- XRPD result after slurry ([3]; IPAc): Form A*
- XRPD result after slurry ([3]; Toluene): Form A*
- Crystal form after DVS analysis [4]: did not change
- Hygroscopicity (DVS) ([4]; 25° C.): slightly hygroscopic
- Water uptake (DVS) ([4]; at 80% RH, 25° C.): 0.66%
- XRPD result after slurry ([5]; Acetone/heptane (1:4), 50° C., 1 day): Form A
- XRPD result after slurry ([5]; Acetone/heptane (1:4), room temperature, 4 days): Form A
- XRPD result after slurry ([5]; EtOAc, 50° C., 1 day): Form A
- XRPD result after slurry ([5]; Heptane, 50° C., 1 day): Form A
- XRPD result after slurry ([5]; IPAc, 50° C., 1 day): Form A
- XRPD result after slurry ([5]; Isobutanol, 50° C., 1 day): Form A
- XRPD result after slurry ([5]; Isobutanol, room temperature, three days (footnote *)): Form A*
- XRPD result after slurry ([5]; MTBE, 50° C., 1 day): Form A
- XRPD result after slurry ([5]; MTBE, room temperature, 4 days): Form A
- XRPD result after slurry ([5]; MeCN, 50° C., 1 day): Form A
- XRPD result after slurry ([5]; MeCN, room temperature, 4 days): Form A
- XRPD result after slurry ([5]; MeOH/water (1:4), 50° C., 1 day): mixture of the Form B of the hemi-fumarate salt of the compound of formula (I) (Form B) and the free base Form of the compound of formula (I) (FBF)
- XRPD result after slurry ([5]; Toluene, 50° C., 1 day): Form A
- XRPD result after slurry ([5]; Water, 50° C., 1 day): mixture of the Form B of the hemi-fumarate salt of the compound of formula (I) (Form B) and the free base Form of the compound of formula (I) (FBF)
- Relative stability of hemi-fumarate Form A vs Form B [6]: more stable form
- solubility ([7]; 2-butanone, organic solvent or mixture, thermodynamic from solid, 2-butanone, read-out: Solubility): > 27500 µg/mL
- solubility ([7]; Acetone): >50000 µg/mL
- solubility ([7]; EtOAc, organic solvent or mixture, thermodynamic from solid, EtOAc, read-out: Solubility): > 9800 µg/mL
- solubility ([7]; EtOH): >53400 µg/mL
- solubility ([7]; EtOH, organic solvent or mixture, thermodynamic from solid, EtOH, read-out: Solubility): > 50000 µg/mL
- solubility ([7]; IPA, organic solvent or mixture, thermodynamic from solid, IPA, read-out: Solubility): > 17800 µg/mL
- solubility ([7]; IPAc, organic solvent or mixture, thermodynamic from solid, IPAc, read-out: Solubility): > 2100 µg/mL
- solubility ([7]; MTBE, organic solvent or mixture, thermodynamic from solid, MTBE, read-out: Solubility): < 2200 µg/mL
- solubility ([7]; MeCN, organic solvent or mixture, thermodynamic from solid, MeCN, read-out: Solubility): > 3200 µg/mL
- solubility ([7]; MeOH): >62200 µg/mL
- solubility ([7]; MeOH, organic solvent or mixture, thermodynamic from solid, MeOH, read-out: Solubility): > 50000 µg/mL
- solubility ([7]; THF): >81800 µg/mL
- solubility ([7]; THF, organic solvent or mixture, thermodynamic from solid, THF, read-out: Solubility): > 50000 µg/mL
- solubility ([7]; acetone, organic solvent or mixture, thermodynamic from solid, Acetone, read-out: Solubility): > 50000 µg/mL
- solubility ([7]; heptane, organic solvent or mixture, thermodynamic from solid, Heptane, read-out: Solubility): < 630 µg/mL
- solubility ([7]; isobutanol, organic solvent or mixture, thermodynamic from solid, Isobutanol, read-out: Solubility): > 5800 µg/mL
- solubility ([7]; toluene, organic solvent or mixture, thermodynamic from solid, Toluene, read-out: Solubility): < 960 µg/mL
- solubility ([7]; water, thermodynamic from solid, Water, read-out: Solubility): < 830 µg/mL
